Legend:
MEC-2 cell line = assay: 96-hour CTG cytotoxicity assay on MEC-2; type: cell-based, human; conditions: 96-hour CTG assay
Description: (§1) FIG. 16. Results of cytotoxicity studies on (A) MEC-1-, (B) MEC-2-, (C) Raji-, (D) Nalm-6-, and (E) Ramos cell lines, respectively, using the obinutuzumab amatoxin conjugates Obi-30.1699 and Obi-30.2115 in a 96-hour CTG assay in comparison to unconjugated α-amanitin.
(§2) Results are depicted in FIG. 14.
(§3) Results are depicted in FIG. 15.
(§4) Cytotoxic activities of the obinutuzumab amatoxin conjugates Obi-30.1699 and Obi-30.2115 were assessed in vitro on MEC-1, MEC-2, Raji, Nalm-6, and Ramos cell lines, respectively, using a 96-hour CTG assay, in comparison to unconjugated α-amanitin. Results are depicted in FIG. 16.

[1] = tested on: Nalm-6 cells (CD20-negative); assay: 96-hour CTG cytotoxicity assay on Nalm-6; type: cell-based; conditions: 96-hour CTG assay
Description: as §1, §3, §4

Ramos cell line = assay: 96-hour CTG cytotoxicity assay on Ramos; type: cell-based; conditions: 96-hour CTG assay
Description: as §1, §3, §4

Raji cell line = assay: 96-hour CTG cytotoxicity assay on Raji; type: cell-based, human; conditions: 96-hour CTG assay
Description: as §1, §3, §4

MEC-1 cell line = assay: 96-hour CTG cytotoxicity assay on MEC-1; type: cell-based, human; conditions: 96-hour CTG assay
Description: as §1, §2, §3, §4

RNA-polymerase II = RNA-polymerase II (Homo sapiens, UniProt P24928); conditions: read-out: KD of complex with RNA-polymerase II; cited from earlier work

CC[C@H](C)[C@@H]1NC(=O)CNC(=O)[C@@H]2Cc3c([nH]c4cc(O)ccc34)[S+]([O-])C[C@@H](NC(=O)CNC1=O)C(=O)N[C@@H](CC(N)=O)C(=O)N1C[C@H](O)C[C@H]1C(=O)N[C@@H]([C@@H](C)[C@@H](O)CO)C(=O)N2 (stereo in doubt) [α-amanitin, reference compound]
Cytotoxic effect on MEC-2 (in words) (MEC-2 cell line): cytotoxic effects on all cell lines only in the millimolar range | Cytotoxic effect on Nalm-6 (in words) [1]: cytotoxic effects on all cell lines only in the millimolar range | Cytotoxic effect on Ramos (in words) (Ramos cell line): cytotoxic effects on all cell lines only in the millimolar range | Cytotoxic effect on Raji (in words) (Raji cell line): cytotoxic effects on all cell lines only in the millimolar range | Cytotoxic effect on MEC-1 (in words) (MEC-1 cell line): cytotoxic effects on all cell lines only in the millimolar range | Kd (RNA-polymerase II): 3 nM

From patent US20250195678A1, “B-LYMPHOCYTE SPECIFIC AMATOXIN ANTIBODY CONJUGATES” (Heidelberg Pharma Research GmbH, priority 2019, published 2025)
